From publication PMC10397409, “The action of physiological and synthetic steroids on the calcium channel CatSper in human sperm” (Frontiers in Cell and Developmental Biology, 2023)
Read-outs that look alike come from different tables or passages of the source.

How the values were obtained:
CatSper [1] = target: T1, CatSper (Homo sapiens, UniProt Q7RTX7+Q86XQ3+Q8NEC5+Q96P56); experiment: Steroid-induced increase in [Ca2+]i in human sperm (Fluo-4 HTS assay, screen 1 activators); format: cell-based; details: for Emax: read-out: Max amplitude (%) (± SD)
T1 construct: Motile spermatozoa were selected by a ‘swim-up’ procedure; endogenous in cells; host or cells: motile human spermatozoa (swim-up) from healthy donors
Protocol: (§1) Briefly, motile spermatozoa were selected by swim-up and labeled with the fluorescent calcium indicator Fluo-4 a.m. to image changes in [Ca^2+]i. After centrifugation to remove excess dye, Fluo-4 AM loaded cells were distributed in a 384-wells plate to obtain ∼125,000 cells/well. After measuring basal fluorescence, a first injection of compounds was performed in order to evaluate their effect on [Ca^2+]i alone. This first screen is therefore considered as a screen to search for ‘activators’. Fluorescence was recorded for 12 min during which sperm cells were continuously exposed to compounds. P4 or PGE1 were then added in the same wells to evaluate whether the tested compounds can reduce the ligand-induced activation of CatSper. This second screen was therefore considered to be a search for CatSper ‘inhibitors’.
Human semen samples were collected from healthy donors by masturbation after a recommended sexual abstinence period of minimum 2 days. Semen samples were allowed to liquefy at 37°C for 15–30 min. […] Motile sperm were allowed to swim at 37°C for 1 hour. The supernatant was collected in 15 mL Falcon tubes and washed twice by centrifugation at 700 x g for 20 min. Sperm were supplemented with 3 mg/mL HSA.
20 μL of cells (corresponding to ∼125,000 cells) loaded with Fluo-4 a.m. were dispensed in a 384-wells plate (Corning, NY, United States) to allow fluorescence measurement. The dye was excited at 480 nm, and emission was recorded at 530 nm. The change in [Ca^2+]i was assessed simultaneously in all wells using a Functional Drug Screening System (FDSS/μCELL) (Hamamatsu Phototonics K.K., Yokohama, Japan) at 37°C. Basal fluorescence was first measured for 30 s. […] P4 and PGE1 were tested at a near-saturating concentration in the HTS in order to evaluate a potential additive or synergistic effect induced by the compounds. […] For alkalization-induced Ca^2+ measurement, NH4Cl was used as a positive control at a final concentration of 10 mM. […] The Prestwick library was tested in technical duplicate. Ca^2+ response curves were normalized using the following formula F−F0/F0×100 , where F 0 is the average of the basal fluorescence prior to the addition of the compound of interest and F corresponds to the fluorescence value at each time point. The ∆F/F0 of the vehicle control (DMSO) was subtracted from all the other values to adjust for dilution and pipetting artifacts. The values of all compounds were normalized to their respective controls.
Data are shown as mean ± standard deviation (SD) with “n” referring to the number of independent experiments performed using sperm samples from ≥3 different donors. Statistical analysis and fitting of dose-response relations were performed using GraphPad Prism 8.1.1 (Prism, La Jolla, United States). To generate sigmoidal curves, the concentrations were converted to their respective log values, and the data were normalized using the following formula: 100⋅x/Fmax , where Fmax is the maximum value of the positive control. A four-parameter Hill equation with a variable Hill coefficient was fitted to generate the EC02, EC50, and IC50. Statistical significance between control and treated conditions was evaluated using a one-way analysis of variance (ANOVA), followed by Dunnett´s test. A p-value <0.05 was considered significant.

CatSper [2] = target: T1, CatSper; experiment: Inhibition of P4-induced Ca2+ influx in human sperm (screen 2 inhibitors); format: cell-based; details: for Max P4 inhibition (%) (± SD): 3 independent experiments
Protocol: as §1
(§2) Human semen samples were collected from healthy donors by masturbation after a recommended sexual abstinence period of minimum 2 days. Semen samples were allowed to liquefy at 37°C for 15–30 min. Motile spermatozoa were selected by a ‘swim-up’ procedure as previously described ([Strünker et al., 2011]). Briefly, 1 mL of semen was deposited in a 45°-inclined 50 mL Falcon tube with 4 mL of Human Tubular Fluid (HTF) medium containing: 93.8 mM NaCl, 4.7 mM KCl, 0.2 mM MgSO4, 0.37 mM KH2PO4, 2.04 mM CaCl2, 20.98 mM HEPES, 2.78 mM glucose, 21.4 mM Na-lactate, 4 mM NaHCO3, 0.33 mM Na-pyruvate, and the pH was adjusted to 7.35. Motile sperm were allowed to swim at 37°C for 1 hour. The supernatant was collected in 15 mL Falcon tubes and washed twice by centrifugation at 700 x g for 20 min. Sperm were supplemented with 3 mg/mL HSA. Written informed consent was obtained from all donors prior to donation and approved by the Cantonal Ethics Committee of the State of Geneva (CCER #14-147).
(§3) Cells were loaded with the fluorescent Ca^2+ indicator Fluo-4 AM at a final concentration of 2.5 µM for 30 min at 37°C. Excess dye was washed via centrifugation at 700 x g for 20 min and sperm were resuspended in HTF medium to obtain a final concentration of 6.25 x 10^6 cells/mL. 20 μL of cells (corresponding to ∼125,000 cells) loaded with Fluo-4 a.m. were dispensed in a 384-wells plate (Corning, NY, United States) to allow fluorescence measurement. The dye was excited at 480 nm, and emission was recorded at 530 nm. The change in [Ca^2+]i was assessed simultaneously in all wells using a Functional Drug Screening System (FDSS/μCELL) (Hamamatsu Phototonics K.K., Yokohama, Japan) at 37°C. Basal fluorescence was first measured for 30 s. […] P4 and PGE1 were tested at a near-saturating concentration in the HTS in order to evaluate a potential additive or synergistic effect induced by the compounds. Non-specific CatSper inhibitor MDL 12330A was used as a negative control at final concentration of 20 µM while DMSO was used as a vehicle control. For alkalization-induced Ca^2+ measurement, NH4Cl was used as a positive control at a final concentration of 10 mM. Fluorescence was recorded for a total of 16.5 min: 30 s before injection, 12 min after the first injection of the tested compounds, and 4 min after the second injection of either P4 or PGE1. The Prestwick library was tested in technical duplicate. Ca^2+ response curves were normalized using the following formula F−F0/F0×100 , where F 0 is the average of the basal fluorescence prior to the addition of the compound of interest and F corresponds to the fluorescence value at each time point. The ∆F/F0 of the vehicle control (DMSO) was subtracted from all the other values to adjust for dilution and pipetting artifacts. The values of all compounds were normalized to their respective controls.

CatSper [3] = target: T1, CatSper; experiment: Inhibition of PGE1-induced Ca2+ influx in human sperm (screen 2 inhibitors); format: cell-based
Protocol: as §1, §2, §3

human sperm = experiment: Sperm penetration in viscous media (modified Kremer test); format: cell-based; details: steroids 10 µM, P4 5 µM, 1 h, 1% methylcellulose
Protocol: The ability of sperm to penetrate in viscous media similar in viscosity to that found in the female reproductive tract was assessed using the modified Kremer test, as previously described ([Rahban et al., 2021]). Briefly, swim-up recovered and capacitated sperm cells at 3 x 10^6/mL were incubated in the absence (DMSO) or presence of steroids (10 µM), or P4 (5 µM) as a positive control for 1 h at 37°C. A glass capillary (0.2 × 4.0 × 50 mm, CM scientific, UK) was filled with 1% (w/v) methylcellulose (MC, 4000 centipoises cP) prepared with HTF media supplemented with 3 mg/mL HSA, respective compounds (10 µM), P4 (5 µM), or DMSO. The glass capillary tube was then sealed on one end with wax (Vitrex, UK) and added to the sperm cells on the open end. Sperm penetration was assessed after 1 h of incubation at 37°C by counting sperm at 1 cm using a microscope with a ×10 objective.

CatSper [4] = target: T1, CatSper; design: method as in Carlson et al., 2022b; details: ref Carlson et al., 2022b; read-out: IC50 inhibiting P4-induced response; cited from earlier work
[5] = maximal amplitude of steroid-induced [Ca2+]i increase, relative to P4, 3 independent experiments
[6] = pooled from 3 independent experiments, read-out: Mean EC50 µM (±SD)
[7] = PGE1-induced response, pooled from 3 independent experiments, read-out: Mean IC50 (PGE1) µM (±SD)

With C[C@]12CC[C@@H]3c4ccc(OS(=O)(=O)O)cc4CC[C@H]3[C@@H]1CCC2=O [Estropipate] the “effective concentrations as low as (dose-dependent increase in [Ca2+]i)” value (CatSper [1]) was 10 nM, the EC50 (CatSper [1]; increase in [Ca2+]i, dose-response 90 µM to 0.3 nM, read-out: EC50 (±SD)) was 0.161 µM and the Emax (CatSper [1]; [5]) was 106%. The EC50 (CatSper [1]; [6]) was 0.159 µM, the “increase in [Ca2+]i (in words)” value (CatSper [1]; steroids 10 µM) was “highest increase in [Ca^2+]i” and the “Max P4 inhibition (%) (± SD)” value (CatSper [2]) was 90 (±10) %. The IC50 (CatSper [2]; P4-induced response, pooled from 3 independent experiments, read-out: Mean IC50 (P4) µM (±SD)) was 0.28 µM, the IC50 (CatSper [2]; inhibition of P4-induced Ca2+ response, dose-response 90 µM to 0.3 nM, read-out: IC50 (±SD)) was 0.288 µM and the IC50 (CatSper [3]; [7]) was 0.282 µM. The “number of sperm penetrating viscous medium at 1 cm” value (human sperm) was “significant increase in cell number”.

In the case of C[C@]12CCC(=O)C=C1CC[C@@H]1[C@@H]2[C@@H](O)C[C@]2(C=O)[C@@H](C(=O)CO)CC[C@@H]12 [aldosterone], the IC50 (CatSper [4]) is listed as 33.1 µM.

For C#C[C@]1(O)CC[C@H]2[C@@H]3CCC4=CC(=O)CC[C@@H]4[C@H]3CC[C@@]21CC [levonorgestrel], the IC50 (CatSper [4]) is listed as 32.3 µM.

For CC(=O)O[C@]1(C(C)=O)CC[C@H]2[C@@H]3C[C@H](C)C4=CC(=O)CC[C@]4(C)[C@H]3CC[C@@]21C [medroxyprogesterone acetate], the IC50 (CatSper [4]) is given as 6.6 µM.

In the case of C[C@]12C/C(=C/O)C(=O)C[C@@H]1CC[C@@H]1[C@@H]2CC[C@@]2(C)[C@H]1CC[C@]2(C)O [oxymetholone], the EC50 (CatSper [1]; Mean EC50 µM (±SD), pooled from 3 independent experiments) is reported as 1.3 µM, the Emax (CatSper [1]) is reported as 82% and the “Max P4 inhibition (%) (± SD)” value (CatSper [2]) is reported as 62 (±9) %. It also gave an IC50 (CatSper [2]; Mean IC50 (P4) µM (±SD), P4-induced response, pooled from 3 independent experiments) of 4.74 µM and an IC50 (CatSper [3]) of 11.8 µM.

In the case of C[C@H](CCC(=O)O)[C@H]1CC[C@H]2[C@@H]3[C@@H](O)C[C@@H]4C[C@H](O)CC[C@]4(C)[C@H]3CC[C@]12C [urosiol], the “Max amplitude (%) (± SD)” value (CatSper [1]; [5]) is reported as 25 (±8) %, the EC50 (CatSper [1]; [6]) is reported as 7.89 µM and the “Max P4 inhibition (%) (± SD)” value (CatSper [2]) is reported as 13 (±3) %. The IC50 (CatSper [3]; [7]) was 12.2 µM.
